The record followed here is US20020026034A1, “3-AMINOETHYL-N-AMIDINO-2,5-DIHYDROPYRROLE DERIVATIVES HAVING ARGININE MIMETIC PROPERTIES” (priority 1995, published 2002).

One experiment addresses T1, human thrombin (Homo sapiens, UniProt P00734).
T1 construct: purchased Sigma
Put plainly: Thrombin inhibition, kinetic measurement with substrate S-2238. It counts as biochemical. Particulars: pH 7 5, 25° C., substrate H-(D)-Phe-Pro-Arg-pNA. On the procedure:
The kinetic measurements were carried out in 0 1 M phosphate buffer which contained 0 2 M sodium chloride and 0 5 % polyethylene glycol 6000 at a pH=7 5 and 25° C. using the substrate H-(D)-Phe-Pro-Arg-pNA (S-2238 Kabi) and human thrombin (Sigma specific activity=2150 NIH-units/mg) in polystyrene semimicrocuvettes in a total volume of 1 ml
Since the measurement curves obtained in both experiments were linear and parallel, the active substance of formula (I) is a rapid thombin inhibitor. The inhibition constant Ki was determined as follows The substrate was added at concentrations of 100 μM. 50 μM. 30 μM, 20 μM and at each substrate concentration a measurement was carried out without inhibitor and three measurements were carried out in the presence of various concentrations of the inhibitor of formula (I). The reactions were started by addition of thrombin. The increase in absorbance at 405 nm caused by the formation of p-nitroanilide was monitored for a time period of 12 min. Measurement points (time versus absorbance) were transferred to a PC at intervals of 20 sec. […] From one measurement series (constant inhibitor concentration, variable substrate concentrations) Km′ and Vmax were determined by a non-linear fit to the equation [formula]
Finally Ki was determined from the total series of measurements by non-linear fit to the equation [formula]

Another experiment deals with horse thrombin. Nature of the experiment: Thrombin time (citrate plasma, sphere coagulometer). The class given is biochemical. The note with it: control thrombin time ca 24 seconds. On the procedure:
A common test in clinical coagulation diagnostics is the thrombin time. This parameter detects the action of thrombin on fibrinogen and the formation of blood clots. Inhibitors of thrombin result in an increased thrombin time
In order to obtain plasma 9 parts fresh blood from healthy donors are mixed with one part sodium citrate solution (0 11 mol/l) and centrifuged at ca 3000 rpm for 10 min at room temperature, The plasma was removed by pipette and can be stored for ca 8 h at room temperature.
200 μl citrate plasma was incubated for 2 min at 37° C. in a sphere coagulometer (KC10 from the Amelung-Company). 10 μl dimethylsulfoxide (DMSO) or a solution of the active substance in DMSO was added to 190 μl preheated thrombin reagent (Boehringer Mannheim, GmbH. contains ca. 3 U/ml horse thrombin and […]) A stopwatch was started when this 200 μl solution was added to the plasma and the time point at which coagulation starts was determined In the control measurements the thrombin time was ca 24 seconds and was increased by the compound of example 3 depending on the concentration (test concentration/increase of thrombin time 5 μM>300*sec: 0 5 μM/96 sec. 0 05 μM/9 sec) [* the experiment was stopped after 5 minutes]

Experiment [1] addresses T2, bovine pancreatic trypsin (Bos taurus, UniProt P00760).
T2 construct: purchased Sigma; host or cells: bovine pancreas
T2 sequence (P00760 24-246): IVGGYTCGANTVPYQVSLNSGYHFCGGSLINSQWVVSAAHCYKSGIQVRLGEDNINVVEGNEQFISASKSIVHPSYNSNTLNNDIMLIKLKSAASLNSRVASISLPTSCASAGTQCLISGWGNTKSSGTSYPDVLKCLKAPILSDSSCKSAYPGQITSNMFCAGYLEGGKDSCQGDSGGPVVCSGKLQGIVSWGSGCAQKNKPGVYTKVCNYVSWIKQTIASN
Nature of the experiment: Inhibition of trypsin. It counts as biochemical. The note with it: measured as described for thrombin, Km=45 μM, read-out: inhibition constant Ki. On the procedure:
10 mg bovine pancreatic trypsin (Sigma) was dissolved in […] hydrochloric acid and stored in a refrigerator 20 μl thereof was admixed with 980 ul 1 mM hydrochloric acid. 25 μl thereof was used for each measurement. The measurement was carried out as described for thrombin. Km=45 μM.

The target in experiment [2] is isolated activated GpIIb/IIIa receptor (Homo sapiens, UniProt P05106+P08514). Put plainly: GpIIb/IIIa fibrinogen ELISA. Particulars: fibrinogen binding to coated GpIIb/IIIa receptor; read-out: gpIIb/IIIa-Inhibition IC50. On the procedure: The GpIlb/Illa fibrinogen Elisa is a modification of assays which are described in the following literature: Nachman, R. L. & Leung, L. L. K. (1982): J. Clin. Invest. 69: 263-269 and Wright, P. S. et al. (1993): Biochem. J. 293:263-267.
Microtitre plates were coated overnight with 2 μg/ml isolated activated GpIIb/IIIa receptor. After unbound receptor had been removed by washing several times the surface of the plates is blocked with 1% casein and it is washed again. The test substance is added at the required concentrations and the plates are incubated for 10 minutes while shaking. The natural ligand of the gpIIb/IIIa receptor, fibrinogen, is added. After incubating for 1 hour unbound fibrinogen is removed by washing several times and the bound fibrinogen is determined by means of a peroxidase-conjugated, anti-fibrinogen monoclonal antibody by measuring the optical density at 405 nm in an ELISA instrument. The inhibition of a fibrinogen-GpIIb/IIIa interaction results in a low optical density. The IC50 value was determined by a concentration/effect curve.

Chain of isolated activated GpIIb/IIIa receptor (P08514 32-887 limits assumed): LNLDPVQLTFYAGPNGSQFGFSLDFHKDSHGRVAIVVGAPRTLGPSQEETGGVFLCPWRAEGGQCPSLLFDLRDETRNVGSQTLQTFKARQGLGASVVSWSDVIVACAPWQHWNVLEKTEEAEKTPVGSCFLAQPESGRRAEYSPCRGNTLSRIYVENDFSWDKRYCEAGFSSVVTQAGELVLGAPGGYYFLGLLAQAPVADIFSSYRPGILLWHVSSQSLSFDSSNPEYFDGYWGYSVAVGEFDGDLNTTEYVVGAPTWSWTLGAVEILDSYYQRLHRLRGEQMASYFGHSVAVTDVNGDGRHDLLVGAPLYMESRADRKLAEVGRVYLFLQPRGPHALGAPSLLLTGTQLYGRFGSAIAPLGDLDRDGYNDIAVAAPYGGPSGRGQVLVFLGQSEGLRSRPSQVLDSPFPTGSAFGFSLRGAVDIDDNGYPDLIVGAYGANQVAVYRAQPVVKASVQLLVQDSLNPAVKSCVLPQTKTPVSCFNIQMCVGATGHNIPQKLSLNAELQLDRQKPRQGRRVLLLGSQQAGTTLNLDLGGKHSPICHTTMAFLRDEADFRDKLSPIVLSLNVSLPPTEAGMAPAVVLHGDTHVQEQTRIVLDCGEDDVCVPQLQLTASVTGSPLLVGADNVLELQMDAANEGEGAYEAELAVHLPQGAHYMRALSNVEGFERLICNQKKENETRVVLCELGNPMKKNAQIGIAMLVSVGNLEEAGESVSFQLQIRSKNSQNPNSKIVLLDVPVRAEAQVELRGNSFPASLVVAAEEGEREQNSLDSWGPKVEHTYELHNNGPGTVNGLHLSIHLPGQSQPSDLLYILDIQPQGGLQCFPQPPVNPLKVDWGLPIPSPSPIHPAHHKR
Chain of isolated activated GpIIb/IIIa receptor (P08514 891-1039 partner limits assumed): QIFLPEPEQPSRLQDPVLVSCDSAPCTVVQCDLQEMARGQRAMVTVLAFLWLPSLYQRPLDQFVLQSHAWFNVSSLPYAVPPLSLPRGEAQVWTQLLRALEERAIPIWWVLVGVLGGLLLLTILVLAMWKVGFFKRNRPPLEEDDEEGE
Chain of isolated activated GpIIb/IIIa receptor (P05106 27-788): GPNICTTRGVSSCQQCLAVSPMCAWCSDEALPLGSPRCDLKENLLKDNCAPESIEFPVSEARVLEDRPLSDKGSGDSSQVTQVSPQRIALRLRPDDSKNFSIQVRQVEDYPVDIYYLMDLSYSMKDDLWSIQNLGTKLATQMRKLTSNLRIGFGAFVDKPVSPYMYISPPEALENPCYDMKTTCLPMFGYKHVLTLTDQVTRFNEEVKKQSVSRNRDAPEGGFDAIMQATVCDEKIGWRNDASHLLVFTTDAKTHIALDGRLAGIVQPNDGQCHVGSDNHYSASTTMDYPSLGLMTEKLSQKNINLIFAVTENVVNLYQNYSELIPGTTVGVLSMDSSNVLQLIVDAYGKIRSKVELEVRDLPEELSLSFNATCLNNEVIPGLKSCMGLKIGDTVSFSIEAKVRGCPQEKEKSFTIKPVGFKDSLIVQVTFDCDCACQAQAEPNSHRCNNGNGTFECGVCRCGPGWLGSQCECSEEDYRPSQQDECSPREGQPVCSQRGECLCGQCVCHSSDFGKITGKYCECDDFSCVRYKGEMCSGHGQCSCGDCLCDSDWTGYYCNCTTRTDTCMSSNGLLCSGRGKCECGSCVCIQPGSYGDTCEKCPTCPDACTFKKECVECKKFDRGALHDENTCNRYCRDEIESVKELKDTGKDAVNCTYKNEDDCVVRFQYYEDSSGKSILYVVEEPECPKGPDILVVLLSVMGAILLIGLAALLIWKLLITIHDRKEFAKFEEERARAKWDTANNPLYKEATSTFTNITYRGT

Regarding `CN[C@H](Cc1ccccc1)C(=O)N1CCC[C@H]1C(=O)NCCC1=CCN(C(=N)N)C1` [Example 4], the “thrombin inhibition (in words)” value on human thrombin is “inhibits thrombin”. For “HOOC—CH2-D-Cha-(N-cyclopentyl)-Gly-Adc [Example 3]”, the “increase of thrombin time” value in the experiment on horse thrombin (test concentration 0 05 μM) was 9 s; in the experiment on horse thrombin (test concentration 0 5 μM), 96 s; in the experiment on horse thrombin (test concentration 5 μM, experiment stopped after 5 minutes), over 300 s. With `N=C(N)N1CC=C(CCNC(=O)[C@@H]2C[C@@H]3CC[C@@H](O)C[C@@H]3N2C(=O)[C@@H](Cc2ccccc2)NC(=O)[C@H](O)Cc2ccccc2)C1` [Example 1, D-Pla-D-Phe-L-Choi-Adc], the Ki (in general, a measure of affinity in units of concentration, obtained from inhibition or displacement) in experiment [1] turned out to be 0.1 µM. For `N=C(N)N1CC=C(CC(N)C(=O)NCC(=O)N[C@@H](CC(=O)O)C(=O)N[C@@H](Cc2ccccc2)C(N)=O)C1` (stereo partly drawn) [Example 11, Ada-Gly-Asp-Phe-NH2], the IC50 in experiment [2] was found to be 12.8 µM.
